Assays:
KEAP1 [1] = molecular target: T1, KEAP1 (Homo sapiens, UniProt Q14145); test: Targeted proteomic analysis of crosslinked KEAP1 peptides; type: cell-based; conditions: gel-isolated HMW-KEAP1 vs monomeric KEAP1
T1 construct: full-length, human KEAP1 (28023, Addgene) was transiently expressed from a pcDNA/FRT/TO plasmid with a C-terminal 3×FLAG tag; host or cells: HEK293T
Method: In-gel digestion of KEAP1 Targeted proteomic analyses of KEAP1 protein were performed by running anti-FLAG enriched HMW-KEAP1 and LMW-KEAP1 (from both CBR-470-1 or MGx treatments as above) on SDS-PAGE gels, and isolated gel pieces were digested in-gel with sequencing grade trypsin (Promega), as previously reported^35. Tryptic peptides from in-gel tryptic digestions were dissolved in 100 mM Tris-HCl, pH 8.0, with 2 mM of CaCl2), and further digested with mass spectrometry-grade chymotrypsin (Thermo Scientific) according to manufacturer's protocol. Chymotryptic digestion reactions were stopped by acidification, and desalted on Ziptip C18 tips.
Targeted proteomic analysis of crosslinked KEAP1 peptides. Double digested KEAP1 peptides from isolated HMW-KEAP1 and monomeric KEAP1 were analyzed by LC-MS/MS on an Easy-nLC 1000 ultra-high pressure LC system coupled to a Q Exactive HF orbitrap and Easy-Spray nanosource as indicated above. Candidate peptides were initially searched by manual inspection of chromatograms and MS1 spectra for m/z values of peptide candidates from predicted digestion sites, crosslink sites and differential presence in HMW- and monomeric KEAP1 from both CBR-470-1 and MGx treated samples. Extracted MS1 ions of the candidates were present in HMW-KEAP1 digests but not in LMW-KEAP1 digests. […]

KEAP1 [2] = test: Western blot of KEAP1 / HMW-KEAP1 formation in treated cells (HEK293T FLAG-KEAP1, IMR32); type: cell-based, human
Method: FLAG-tagged Protein Expression and Western Blotting. Full-length, human PGK1 (NM_000291, Origene) transiently expressed from a pCMV6 entry vector with a C-terminal Myc-DDK tag; full-length, human KEAP1 (28023, Addgene) was transiently expressed from a pcDNA/FRT/TO plasmid with a C-terminal 3×FLAG tag. All references to FLAG-PGK1 or FLAG-KEAP1 represent the proteins in the aforementioned vectors, respectively. Transient protein expression was performed in confluent 10 cm plates of HEK293T cells by transfection of 1 μg plasmid with Lipofectamine 2000 (Invitrogen) according to manufacturer's protocol. For in situ compound or metabolite treatment experiments, compounds were added approximately 24 hours after transfection, and incubated for the indicated duration. For FLAG-KEAP1 western blotting and immunoprecipitation experiments, cells were harvested by scraping, pelleted by centrifugation, washed twice with PBS and lysed in 8 M urea, 50 mM NH4HCO3, phosphatase inhibitor cocktail (Sigma Aldrich), and EDTA-free complete protease inhibitor (Roche), pH 8.0, at 4° C. Lysate was sonicated (Fisher Scientific FB-505), insoluble debris cleared by centrifugation, and the supernatant was diluted into 4× Laemmli buffer containing 50 mM dithiothreitol (DTT) as a reducing agent. Samples were prepared for SDS-PAGE by heating to 95° C. for 5 minutes, cooled to room temperature, resolved on NuPAGE Novex 4-12% Bis-Tris Protein Gels (Invitrogen), and transferred onto nitrocellulose membranes by standard western blotting methods. Membranes were blocked in 2% BSA in TBS containing 0.1% tween-20 (TBST) and probed with primary and secondary antibodies. Primary antibodies used in this study include: anti-FLAG-M2 (1:1000, F1804, Sigma Aldrich), anti-KEAP1 (1:500, SC-15246, Santa Cruz), anti-HSPA1A (1:1000, 4872, Cell Signaling), anti-ACTB (1:1000, 4790, Cell Signaling), anti-GAPDH (1:1000, 2118S, Cell Signaling) and TUBG (1:1000, 5886, Cell Signaling). […]

T1 sequence (Q14145 whole entry): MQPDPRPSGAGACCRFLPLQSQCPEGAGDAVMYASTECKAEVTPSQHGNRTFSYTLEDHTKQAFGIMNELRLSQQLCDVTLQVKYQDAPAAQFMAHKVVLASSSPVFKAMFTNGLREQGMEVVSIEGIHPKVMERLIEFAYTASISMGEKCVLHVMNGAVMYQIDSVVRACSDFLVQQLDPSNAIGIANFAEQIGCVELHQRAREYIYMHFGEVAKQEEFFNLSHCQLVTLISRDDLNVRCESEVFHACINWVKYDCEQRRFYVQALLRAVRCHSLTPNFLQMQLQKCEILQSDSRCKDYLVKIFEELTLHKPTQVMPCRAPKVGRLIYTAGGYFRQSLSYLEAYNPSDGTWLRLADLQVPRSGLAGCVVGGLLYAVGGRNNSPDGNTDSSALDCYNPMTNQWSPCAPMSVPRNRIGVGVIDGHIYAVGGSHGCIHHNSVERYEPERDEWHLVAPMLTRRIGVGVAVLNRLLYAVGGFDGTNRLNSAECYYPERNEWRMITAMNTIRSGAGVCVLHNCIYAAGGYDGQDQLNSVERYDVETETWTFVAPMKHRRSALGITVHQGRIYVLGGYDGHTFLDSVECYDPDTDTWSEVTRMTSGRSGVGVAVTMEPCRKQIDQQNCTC

SMILES	MICA crosslinked C151-R135 KEAP1 peptide (KEAP1 [1])	KEAP1 levels and α-pgK immunoreactive bands (KEAP1 [2]; IMR32 cells, 30 minutes)	high molecular weight KEAP1 (HMW-KEAP1) band (KEAP1 [2]; Western blot of treated cells)	formation of HMW-KEAP1 (KEAP1 [2]; treatment of cell lysates or live cells with metabolite)
CC(C)CN[C@H]1CS(=O)(=O)C[C@@H]1S(=O)(=O)c1ccc(Cl)cc1 [CBR-470-1]	MICA crosslink between C151 and R135 was identified in isolated HMW-KEAP1	did not result in altered KEAP1 levels, or any α-pgK immunoreactive bands	dose-dependent, high molecular weight KEAP1 (HMW-KEAP1) band	–
CC(=O)C=O [MGx, methylglyoxal, reference compound]	MICA crosslink between C151 and R135 was identified in isolated HMW-KEAP1	–	–	selective formation of HMW-KEAP1
